This assay has as its system CD2F1 mice, L1210 leukemia ip, survival T/C. The assay is described as follows: NCI In Vivo Anticancer Drug Screen. Data for tumor model L1210 Leukemia (intraperitoneal) in CD2F1 (CDF1) mice. The conditions noted are these: higher = longer survival. In a few lines: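 Compound-dosed mice with transplantable tumor versus matched vehicle controls; endpoint ratio T/C reported.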

The mark [1] stands for this setting: endpoint: mean survival time, dose: 50.0 mg/kg/injection, schedule: Q01DX009 (ip), vehicle: saline with Tween-80.
Setting [2] is: endpoint: mean survival time, dose: 100.0 mg/kg/injection, schedule: Q01DX009 (ip), vehicle: saline with Tween-80.
Where [3] appears, read: endpoint: mean survival time, dose: 200.0 mg/kg/injection, schedule: Q01DX009 (ip), vehicle: saline with Tween-80.
[4] abbreviates: endpoint: mean survival time, dose: 25.0 mg/kg/injection, schedule: Q01DX009 (ip), vehicle: Klucel (hydroxypropylcellulose) (HPC).
The mark [5] stands for this setting: endpoint: mean survival time, dose: 50.0 mg/kg/injection, schedule: Q01DX009 (ip), vehicle: Klucel (hydroxypropylcellulose) (HPC).
Setting [6] is: endpoint: mean survival time, dose: 100.0 mg/kg/injection, schedule: Q01DX009 (ip), vehicle: Klucel (hydroxypropylcellulose) (HPC).
[7] abbreviates: endpoint: mean survival time, dose: 100.0 mg/kg/injection, schedule: Q04DX003 (ip), vehicle: saline with Tween-80.
[8] abbreviates: endpoint: mean survival time, dose: 200.0 mg/kg/injection, schedule: Q01DX009 (ip), vehicle: Klucel (hydroxypropylcellulose) (HPC).
Setting [9] is: endpoint: mean survival time, dose: 200.0 mg/kg/injection, schedule: Q04DX003 (ip), vehicle: saline with Tween-80.
Setting [10] is: endpoint: mean survival time, dose: 400.0 mg/kg/injection, schedule: Q01DX009 (ip), vehicle: Klucel (hydroxypropylcellulose) (HPC).
Setting [11] is: endpoint: mean survival time, dose: 100.0 mg/kg/injection, schedule: Q01DX001 (ip), vehicle: saline with Tween-80.
[12] abbreviates: endpoint: mean survival time, dose: 25.0 mg/kg/injection, schedule: Q01DX009 (ip), vehicle: saline with Tween-80.
The mark [13] stands for this setting: endpoint: mean survival time, dose: 200.0 mg/kg/injection, schedule: Q01DX001 (ip), vehicle: saline with Tween-80.
The mark [14] stands for this setting: endpoint: mean survival time, dose: 400.0 mg/kg/injection, schedule: Q01DX001 (ip), vehicle: saline with Tween-80.
The mark [15] stands for this setting: endpoint: mean survival time, dose: 12.5 mg/kg/injection, schedule: Q01DX009 (ip), vehicle: saline with Tween-80.

Values joined by “and” are separate entries in the source; they are usually repeats but may differ in a detail not shown here. Identical values can stand only once. Toxic doses and inconclusive results are not listed.

Take `CC(C)(O)c1cccc(F)c1`: the T/C reads like this: under setting [1], 102 % of control; under setting [2], 98 % of control; under setting [3], 102 % of control; (endpoint: mean survival time, dose: 400.0 mg/kg/injection, schedule: Q01DX009 (ip), vehicle: saline with Tween-80) 102 % of control.

Consider `O=C(c1ccccc1)C(C(O)CCl)C(O)(C(F)(F)F)C(F)(F)F` (centres undefined), for which the T/C is 94 % of control under setting [2] and 94 % of control under setting [3].

For `CC1(C)CC2(OC2c2ccc([N+](=O)[O-])cc2)C(=O)c2ccccc21` (centres undefined), the T/C is 93 % of control (endpoint: mean survival time, dose: 12.5 mg/kg/injection, schedule: Q01DX009 (ip), vehicle: Klucel (hydroxypropylcellulose) (HPC)); 94 % of control under setting [4]; 98 % of control under setting [5]; 93 % of control under setting [1]; 100 % of control under setting [6]; 93 % of control under setting [2]. The T/C reads like this: under setting [7], 89 % of control; under setting [8], 100 % of control; under setting [3], 96 % of control; under setting [9], 88 % of control; under setting [10], 96 % of control.

Consider `CCOC(=O)c1cnc[nH]c1=O`, for which the T/C reads like this: under setting [7], 104 % of control; under setting [9], 104 % of control; (endpoint: mean survival time, dose: 400.0 mg/kg/injection, schedule: Q04DX003 (ip), vehicle: saline with Tween-80) 96 % of control.

With `C[N+]1(C)CCC2=CC3C=CC2C1C=C3` (centres undefined), the T/C is, setting by setting: (endpoint: median survival time, dose: 25.0 mg/kg/injection, schedule: Q04DX002 (ip), vehicle: saline with Tween-80) 100 % of control; (endpoint: median survival time, dose: 50.0 mg/kg/injection, schedule: Q04DX002 (ip), vehicle: saline with Tween-80) 100 % of control.

`O=C1O/C(=C\c2ccccc2)C(O)=C1c1ccccc1`: the T/C runs as follows: (endpoint: mean survival time, dose: 25.0 mg/kg/injection, schedule: Q01DX001 (ip), vehicle: saline with Tween-80) 102 % of control; (endpoint: mean survival time, dose: 50.0 mg/kg/injection, schedule: Q01DX001 (ip), vehicle: saline with Tween-80) 98 % of control; under setting [11], 102 % of control.

Take `NC1CC(N)C(O)C(O)C1O` (centres undefined): the T/C was 95 % of control (endpoint: mean survival time, dose: 100.0 mg/kg/injection, schedule: Q01DX001 (ip), vehicle: saline); 103 % of control (endpoint: mean survival time, dose: 100.0 mg/kg/injection, schedule: Q04DX002 (ip), vehicle: saline with Tween-80); 100 % of control (endpoint: mean survival time, dose: 200.0 mg/kg/injection, schedule: Q01DX001 (ip), vehicle: saline); 103 % of control (endpoint: mean survival time, dose: 200.0 mg/kg/injection, schedule: Q04DX002 (ip), vehicle: saline with Tween-80); 94 % of control (endpoint: mean survival time, dose: 400.0 mg/kg/injection, schedule: Q01DX001 (ip), vehicle: saline); 95 % of control (endpoint: mean survival time, dose: 400.0 mg/kg/injection, schedule: Q04DX002 (ip), vehicle: saline with Tween-80).

Regarding `CN(C)S(=O)(=O)c1ccc(Cl)c([N+](=O)[O-])c1`, the T/C (endpoint: mean survival time, dose: 100.0 mg/kg/injection, schedule: Q04DX002 (ip), vehicle: Klucel (hydroxypropylcellulose) (HPC)) was 106 % of control and the T/C (endpoint: mean survival time, dose: 200.0 mg/kg/injection, schedule: Q04DX002 (ip), vehicle: Klucel (hydroxypropylcellulose) (HPC)) was 106 % of control.

In the case of `COCC1OC2OC3C(COC)OC(OC4C(COC)OC(OC5C(COC)OC(OC6C(COC)OC(OC7C(COC)OC(OC8C(COC)OC(OC1C(O)C2O)C(O)C8O)C(O)C7O)C(O)C6O)C(O)C5O)C(O)C4O)C(O)C3O` (centres undefined) (tested in a mixture with another compound), the T/C is 98 % of control under setting [4]; 98 % of control under setting [5]; 94 % of control under setting [6]; 96 % of control under setting [8]; 93 % of control under setting [10].

As to `CCOC(=O)c1ccc(Nc2nnc(-c3ccc(OC)cc3OC)s2)cc1`, the T/C is 94 % of control under setting [12]; 88 % of control under setting [1]; 88 % of control and 91 % of control under setting [2].

Regarding `O=[n+]1c2ccccc2n([O-])c2ccccc21.[Cl][Ni][Cl]`, the T/C was 98 % of control (endpoint: median survival time, dose: 1.56 mg/kg/injection, schedule: Q01DX009 (ip), vehicle: saline with Tween-80); 92 % of control (endpoint: median survival time, dose: 3.12 mg/kg/injection, schedule: Q01DX009 (ip), vehicle: saline with Tween-80); 103 % of control (endpoint: median survival time, dose: 6.25 mg/kg/injection, schedule: Q01DX009 (ip), vehicle: saline with Tween-80); 109 % of control (endpoint: median survival time, dose: 12.5 mg/kg/injection, schedule: Q01DX009 (ip), vehicle: saline with Tween-80); 113 % of control (endpoint: median survival time, dose: 25.0 mg/kg/injection, schedule: Q01DX009 (ip), vehicle: saline with Tween-80).

Regarding `CC(C)C(C)CCC(C)C1CCC2=C3CCC4CC(O)CCC4(C)C3CCC21C` (centres undefined), the T/C is 89 % of control (endpoint: mean survival time, dose: 75.0 mg/kg/injection, schedule: Q01DX001 (ip), vehicle: saline with Tween-80); 92 % of control (endpoint: mean survival time, dose: 150.0 mg/kg/injection, schedule: Q01DX001 (ip), vehicle: saline with Tween-80); 100 % of control (endpoint: mean survival time, dose: 300.0 mg/kg/injection, schedule: Q01DX001 (ip), vehicle: saline with Tween-80).

Take `COC(=O)c1ccc(O)c([N+](=O)[O-])c1`: the T/C under setting [7] is 104 % of control and the T/C under setting [9] is 93 % of control.

With `Cc1ncc(C=O)c(C)c1O`, the T/C (endpoint: mean survival time, dose: 75.0 mg/kg/injection, schedule: Q01DX001 (ip), vehicle: other) is 101 % of control.

For the compound `CCOc1ccc(Nc2ncnc3nc[nH]c23)cc1CN(CCCl)CCCl`, the T/C is 116 % of control (endpoint: mean survival time, dose: 2.0 mg/kg/injection, schedule: Q01DX009 (ip), vehicle: saline sonified); 117 % of control (endpoint: mean survival time, dose: 4.0 mg/kg/injection, schedule: Q01DX009 (ip), vehicle: saline sonified); 116 % of control (endpoint: mean survival time, dose: 8.0 mg/kg/injection, schedule: Q01DX009 (ip), vehicle: saline sonified).

As to `CC(=O)C1CCC2C3CCC4=CC(=O)CC4(C)C3CCC12C` (centres undefined), the T/C by setting is: under setting [7], 113 % of control; under setting [9], 124 % of control.

Regarding `NCCCCS(=O)(=O)Nc1ccc(Nc2c3ccccc3nc3cc([N+](=O)[O-])ccc23)cc1`, the T/C is 158 % of control under setting [1]; 172 % of control under setting [2]; 157 % of control under setting [7]; 159 % of control (endpoint: mean survival time, dose: 300.0 mg/kg/injection, schedule: Q04DX003 (ip), vehicle: saline with Tween-80); 151 % of control (endpoint: mean survival time, dose: 400.0 mg/kg/injection, schedule: Q04DX003 (ip), vehicle: saline).

`O=C(O)C1C2c3cccc4cccc(c34)C12` (centres undefined): the T/C by setting is: under setting [1], 101 % of control; under setting [2], 97 % of control; under setting [7], 101 % of control; under setting [3], 109 % of control; under setting [9], 101 % of control.

In the case of `CCOC(=O)Cc1cnc(SC)nc1Nc1ccc(Br)cc1`, the T/C under setting [11] is 89 % of control, the T/C under setting [13] is 89 % of control and the T/C under setting [14] was 100 % of control.

For the compound `Cc1ccc(NC(=O)Nc2ccccc2C(N)=O)cc1C`, the T/C under setting [15] was 95 % of control; the T/C under setting [12] is 102 % of control; the T/C under setting [1] was 95 % of control; the T/C under setting [2] is 92 % of control; the T/C under setting [3] was 92 % of control.

Take `Nc1ccn(C2OC(CO)C3OP(=O)(O)OC32)c(=O)n1` (centres undefined): the T/C is 96 % of control (endpoint: mean survival time, dose: 12.5 mg/kg/injection, schedule: Q01DX005 (ip), vehicle: water); 99 % of control (endpoint: mean survival time, dose: 25.0 mg/kg/injection, schedule: Q01DX005 (ip), vehicle: water); 99 % of control (endpoint: mean survival time, dose: 50.0 mg/kg/injection, schedule: Q01DX005 (ip), vehicle: water); 94 % of control (endpoint: mean survival time, dose: 100.0 mg/kg/injection, schedule: Q01DX005 (ip), vehicle: water); 96 % of control (endpoint: mean survival time, dose: 200.0 mg/kg/injection, schedule: Q01DX005 (ip), vehicle: water).

In the case of `CC(=O)c1ccc[n+](Cc2ccc([N+](=O)[O-])cc2)c1`, the T/C is 117 % of control (endpoint: mean survival time, dose: 25.0 mg/kg/injection, schedule: Q01DX009 (ip), vehicle: saline); 109 % of control (endpoint: mean survival time, dose: 50.0 mg/kg/injection, schedule: Q01DX009 (ip), vehicle: saline); 108 % of control (endpoint: mean survival time, dose: 100.0 mg/kg/injection, schedule: Q01DX009 (ip), vehicle: saline).

`CC(N)CCc1ccccc1` (centres undefined): the T/C runs as follows: under setting [15], 102 % of control; under setting [12], 100 % of control; under setting [1], 102 % of control.

In the case of `CCOC(=O)C(=O)NCCc1ccc2c(c1)OCO2`, the T/C was 97 % of control under setting [11], 95 % of control under setting [13] and 100 % of control under setting [14].

The values are drawn from PubChem BioAssay AID256 (DTP/NCI, 2004).
